This assay relates to guinea pig ileum. Briefly: guinea pig ileum bioassay of Kosterlitz et al. (opiate agonist activity). Type of assay: cell-based. The note with it: for relative potency: guinea pig ileum bioassay, βh and βc -endorphin = 1.00. An excerpt: Thus, for example, in the guinea pig ileum bioassay of Kosterlitz et al. Brit. J. Pharmacol. 39, 398 (1970) the IC50 (50% inhibiting concentration) of representative β-endorphins and the relative potency of β-endorphin fragments are as follows.

Ends that are not written are not given here.

Consider `CC[C@H](C)[C@H](NC(=O)[C@H](C)NC(=O)[C@H](CC(N)=O)NC(=O)[C@H](CCCCN)NC(=O)[C@H](Cc1ccccc1)NC(=O)[C@H](CC(C)C)NC(=O)[C@@H](NC(=O)[C@@H](NC(=O)[C@H](CC(C)C)NC(=O)[C@@H]1CCCN1C(=O)[C@@H](NC(=O)[C@H](CCC(N)=O)NC(=O)[C@H](CO)NC(=O)[C@H](CCCCN)NC(=O)[C@H](CCC(=O)O)NC(=O)[C@H](CO)NC(=O)[C@@H](NC(=O)[C@H](CCSC)NC(=O)[C@H](Cc1ccccc1)NC(=O)CNC(=O)CNC(=O)[C@@H](N)Cc1ccc(O)cc1)[C@@H](C)O)[C@@H](C)O)C(C)C)[C@@H](C)O)C(=O)N[C@H](C(=O)N[C@@H](CCCCN)C(=O)N[C@@H](CC(N)=O)C(=O)N[C@@H](C)C(=O)N[C@@H](Cc1ccc(O)cc1)C(=O)N[C@@H](CCCCN)C(=O)N[C@@H](CCCCN)C(=O)NCC(=O)N[C@@H](CCC(=O)O)C(=O)O)[C@@H](C)CC` [βh -endorphin], for which the relative potency is 1.00. “YGGFMTLFKNAIIKNAYKKGE [βh-endorphin-(1-5)-(16-31), H--tyr--Gly--Gly--Phe--Met--Thr--Leu--Phe--Lys--Asn--Ala--Ile--Ile--Lys--Asn--Ala--Tyr--Lys--Lys--Gly--Glu--OH]” displayed a relative potency of 1.35. For the setting “guinea pig ileum assay for opiate agonist activity”, the “more potent than parent compound βh -endorphin” value is recorded as “about 35%”. Take “YGGFMTSEKSQTPLVTLFKNAIIKNAHKKGQ [βc -endorphin]”: the relative potency is on record as 1.00. As for met-enkephalin, the relative potency is recorded as 0.26.

Compound “βc -endorphin-(6-31): fragment 6-31 of camel β-endorphin (TSEKSQTPLVTLFKNAIIKNAHKKGQ; Beta-endorphin; UniProt P01203 6-31, looked up, fragment)” came in with a relative potency of 0.04. Regarding “βc -endorphin-(20-31): fragment 20-31 of camel β-endorphin (NAIIKNAHKKGQ; Beta-endorphin; UniProt P01203 20-31, looked up, fragment)”, the relative potency was determined as 0.001.

These data come from US4081434A, “Novel analogs of β-endorphin” (Hoffmann-La Roche Inc., priority 1977, dated 1978).
